In US20090142411A1, “Composition and Device Comprising an Inorganic Component (Metal Compound) for Coagulation of Protein-Containing Fluids” (SMITH & NEPHEW, PLC, priority 2005, published 2009):

What was measured:
[1] = coagulation of heat-inactivated foetal calf serum
Method: (§1) The oxide powder was allowed to settle to the bottom of the vessel (0.5 ml capacity Eppendorf tube) and was left undisturbed for 2 hours. […] The vessel was left undisturbed for 24 h.

[2] = coagulation of chronic wound fluid
Method: as §1

[3] = coagulation of whole human blood; settings: 1-5 μl aliquots of 350 mg/ml solution, 100 μl whole human blood
Method: Examples 4-9 were repeated with 100 μl whole human blood in place of the bovine serum albumin solution.

[4] = coagulation of whole human saliva; settings: 5 gi aliquot of 350 mg/ml solution in PBS pH 7.4, 100 μl whole human saliva, 30 minutes
Method: (§2) The vessel was left undisturbed for 30 minutes.

gelatine = assay: coagulation of gelatine solution; settings: 5 μl aliquot of 350 mg/ml solution, 100 μl gelatine solution 40 mg/ml in PBS, immediately
bovine serum albumin = bovine serum albumin (Bos taurus, UniProt P02769); assay: coagulation of bovine serum albumin solution; settings: 10 mg powder in 100 μl bovine serum albumin 40 mg/ml in PBS pH 7.4, undisturbed 2 hours
Method: The oxide powder was allowed to settle to the bottom of the vessel (0.5 ml capacity Eppendorf tube) and was left undisturbed for 2 hours.
as §2, §2, §2, §2, §2
The vessel was left undisturbed for 24 h.

Sequence of bovine serum albumin (P02769 25-607): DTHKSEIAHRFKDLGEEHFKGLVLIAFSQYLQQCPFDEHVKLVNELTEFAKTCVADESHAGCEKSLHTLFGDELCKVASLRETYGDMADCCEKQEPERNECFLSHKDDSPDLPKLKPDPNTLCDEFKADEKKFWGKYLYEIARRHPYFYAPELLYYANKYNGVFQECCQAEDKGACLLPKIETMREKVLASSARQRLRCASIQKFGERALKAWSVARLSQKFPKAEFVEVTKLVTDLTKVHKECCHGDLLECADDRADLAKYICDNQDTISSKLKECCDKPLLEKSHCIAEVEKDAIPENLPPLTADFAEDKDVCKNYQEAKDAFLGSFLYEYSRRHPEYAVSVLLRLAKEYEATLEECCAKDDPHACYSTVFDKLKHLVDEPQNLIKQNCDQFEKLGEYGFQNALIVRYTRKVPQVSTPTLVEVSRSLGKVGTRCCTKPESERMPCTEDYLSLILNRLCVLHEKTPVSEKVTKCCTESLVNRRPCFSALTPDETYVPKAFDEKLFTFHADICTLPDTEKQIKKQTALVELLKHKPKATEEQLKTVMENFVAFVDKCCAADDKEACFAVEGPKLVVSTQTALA

Row | Substance | coagulation, Examples 4-9 repeated ([1]; 1-5 μl aliquots of 350 mg/ml solution, 100 μl heat-inactivated foetal calf serum) | coagulation ([1]; 5 μl aliquot of 350 mg/ml solution, heat-inactivated foetal calf serum, 1.0 ml syringe, 24 h) | coagulation, Examples 4-9 repeated ([2]; 1-5 μl aliquots of 350 mg/ml solution, 100 μl chronic wound fluid) | coagulation ([2]; 5 μl aliquot of 350 mg/ml solution, chronic wound fluid, 1.0 ml syringe, 24 h) | coagulation, Examples 4-9 repeated [3] | coagulation [4] | coagulation / precipitate formation (gelatine) | coagulation (bovine serum albumin) | coagulation ([1]; 10 mg powder in 100 μl heat-inactivated foetal calf serum, undisturbed 2 hours) | coagulation ([2]; 10 mg powder in 100 μl chronic wound fluid, overnight) | coagulation ([2]; 10 mg powder in 100 μl chronic wound fluid, undisturbed 2 hours)
1 | gold (III) chloride | The results were the same | the fluid coagulated | The results were the same | the fluid coagulated | The results were the same | a lightly coagulated, opaque mass of several millimetres thickness was formed | a fibrous precipitate was formed |  |  |  | 
2 | gold (III) oxide [gold (III) oxide powder] |  |  |  |  |  |  |  | a coagulated, opaque mass of several millimetres thickness was formed | a coagulated, opaque mass of several millimetres thickness was formed | the entire fluid volume had coagulated | a coagulated, opaque mass of several millimetres thickness was formed
